Assay results published in paper PMC8387043, “Host Poly(A) Polymerases PAPD5 and PAPD7 Provide Two Layers of Protection That Ensure the Integrity and Stability of Hepatitis B Virus RNA” (Journal of Virology, 2021).

What was measured:
HBV [1] = assay: Antiviral assay in HepG2.2.15 cells (HBsAg/HBeAg CLIA, secreted HBV DNA qPCR); format: cell-based, hepatitis B virus; conditions: Hepatitis B virus
HBV [2] = assay: Multiple in vitro HBV replication models (summary statements); format: cell-based; conditions: Hepatitis B virus
Method: AB-452 and RG7834 both belong to the dihydroquinolizinones chemical class. The antiviral activities of AB-452 and its diastereomer ARB-169451 were evaluated using multiple in vitro HBV replication models, including HepG2.2.15 cells (which constitutively express HBV through the integrated viral genome), PLC/PRF/5 cells (a patient-derived hepatocellular carcinoma cell line only expressing HBsAg), and HBV-infected HepG2-NTCP cells or primary human hepatocytes (PHHs) in which viral replication was dependent on cccDNA transcription (Table 1).

HCMV = assay: Antiviral selectivity panel, CPE in MRC-5 cells; format: cell-based, human cytomegalovirus; conditions: Human betaherpesvirus 5, MRC5; MRC-5, CPE
RSV = assay: Antiviral selectivity panel, CPE in HEp2 cells; format: cell-based; conditions: human respiratory syncytial virus, HEp-2
Human rhinovirus = assay: Antiviral selectivity panel, CPE in H1-HeLa cells; format: cell-based; conditions: Human rhinovirus sp.
Influenza = assay: organism not typed; format: cell-based; conditions: MDBK, CPE
Cytotoxicity = format: cell-based
Text: TABLE 3 Cytotoxicity of AB-452 against cells derived from various tissues | column: AB-452 CC50 (μM)

[3] = Cytotoxicity (summary statement); format: cell-based; conditions: several cell lines from different tissue origins; 30 μM highest concentration tested
HBV [4] = assay: Intracellular HBV pgRNA and sRNA by Northern blotting in HepG2.2.15 cells; format: cell-based, hepatitis B virus; conditions: HepG2.2.15, 48 h, 1,000 nM
Method: (§1) Total cellular RNA was extracted from HepG2.2.15 or HepAD38 cells treated with or without antiviral compounds using TRIzol reagent according to the manufacturer's directions (Thermo Fisher Scientific, Waltham, MA). Northern blotting was performed as described previously ([1]). Briefly, total RNA was separated in a 1.5% agarose gel and transferred onto an Amersham Hybond-XL membrane (product no. GERPN303S; GE Healthcare, IL, USA). Membranes were probed with an [α-^32P]UTP (PerkinElmer, CT, USA)-labeled minus strand-specific full-length HBV riboprobe (3.2 kb) transcribed from plasmid pSP65_HBV(+) DNA. Membranes were exposed to a phosphoimager screen, and the hybridization signals were quantified using Image Studio software (Li-Cor Biosciences, NE, USA).

HBV [5] = assay: HBV replication intermediates and viral proteins in HepG2.2.15 cells (Northern, Western, particle gel, Southern); format: cell-based, hepatitis B virus; conditions: HepG2.2.15, 6 days; ETV, GLS-4, cmpdA 1 μM; AB-452 70 nM
Method: as §1
Total intracellular viral core-associated DNA was extracted as described previously ([1]) and analyzed by Southern blotting hybridization with an [α-^32P]UTP-labeled full-length HBV riboprobe (3.2 kb) that specifically hybridized to minus strand of viral DNA. Membranes were exposed to a phosphoimager screen, and the hybridization signals were quantified using Image Studio software.
HepG2.2.15 or HepAD38 cells cultured in a 12-well plate were lysed with 200 μl Laemmli sample buffer (Bio-Rad, PA, USA) supplemented with 2.5% 2-mercaptoethanol (Sigma-Aldrich, MO, USA). […]

## COCCCOc1cc2c(nc1OC)-c1cc(=O)c(C(=O)O)cn1[C@H](C(C)C)C2 [AB-452]
HBV [1]; HepG2-2.2.15, Table 2, read-out: EC50, HBV (HBsAg)
  EC50: 0.0012 µM
HBV [1]; HepG2.2.15 cells, read-out: HBV DNA EC50
  EC50: 0.00028 ± 1e-05 µM
HBV [1]; HepG2.2.15 cells, read-out: HBeAg EC50
  EC50: 0.0028 ± 0.0021 µM
HBV [1]; HepG2.2.15 cells, read-out: HBsAg EC50
  EC50: 0.0014 ± 0.0002 µM
HBV [2]; HepG2.2.15, PLC/PRF/5, HepG2-NTCP, PHH, read-out: HBsAg, HBeAg and HBV DNA EC50 (range over models)
  EC50: 0.00028 to 0.0068 µM
HBV [2]; abstract, read-out: HBsAg EC50 in vitro (range over models)
  EC50: 0.0014 to 0.0068 µM
HCMV
  EC50: > 30 µM
RSV
  EC50: > 30 µM
Human rhinovirus
  EC50: > 30 µM
Influenza
  EC50: > 30 µM
Cytotoxicity; African green monkey, Vero cells (kidney)
  CC50: > 30 µM
Cytotoxicity; HEp2, human epithelial cells
  CC50: > 30 µM
Cytotoxicity; HeLa, human cervical cancer cells
  CC50: > 30 µM
Cytotoxicity; cattle (bovine), MDBK cells (kidney)
  CC50: > 30 µM
Cytotoxicity; hamster, BHK21 cells (kidney)
  CC50: > 30 µM
Cytotoxicity; human, CEM-SS cells (T lymphoblast)
  CC50: > 30 µM
Cytotoxicity; human, MRC5 cells (lung fibroblasts)
  CC50: > 30 µM
[3]
  CC50: > 30 µM
HBV [4]
  sRNA (%) of untreated controls: ~18%
HBV [5]
  Effect on HBV replication intermediates and viral proteins: reducing intracellular pgRNA, sRNA, core protein, native capsids, encapsidated pgRNA, and replicating HBV DNA
